One molecule from patent US6506778B2, “Acylphenylurea derivatives, a process for their preparation and their use as pharmaceuticals” (Aventis Pharma Deutschland GmbH, priority 2000, dated 2003) can be followed below.

Series [1] deals with T1, human glycogen phosphorylase a (Homo sapiens, UniProt P06737).
T1 sequence (P06737 1-847): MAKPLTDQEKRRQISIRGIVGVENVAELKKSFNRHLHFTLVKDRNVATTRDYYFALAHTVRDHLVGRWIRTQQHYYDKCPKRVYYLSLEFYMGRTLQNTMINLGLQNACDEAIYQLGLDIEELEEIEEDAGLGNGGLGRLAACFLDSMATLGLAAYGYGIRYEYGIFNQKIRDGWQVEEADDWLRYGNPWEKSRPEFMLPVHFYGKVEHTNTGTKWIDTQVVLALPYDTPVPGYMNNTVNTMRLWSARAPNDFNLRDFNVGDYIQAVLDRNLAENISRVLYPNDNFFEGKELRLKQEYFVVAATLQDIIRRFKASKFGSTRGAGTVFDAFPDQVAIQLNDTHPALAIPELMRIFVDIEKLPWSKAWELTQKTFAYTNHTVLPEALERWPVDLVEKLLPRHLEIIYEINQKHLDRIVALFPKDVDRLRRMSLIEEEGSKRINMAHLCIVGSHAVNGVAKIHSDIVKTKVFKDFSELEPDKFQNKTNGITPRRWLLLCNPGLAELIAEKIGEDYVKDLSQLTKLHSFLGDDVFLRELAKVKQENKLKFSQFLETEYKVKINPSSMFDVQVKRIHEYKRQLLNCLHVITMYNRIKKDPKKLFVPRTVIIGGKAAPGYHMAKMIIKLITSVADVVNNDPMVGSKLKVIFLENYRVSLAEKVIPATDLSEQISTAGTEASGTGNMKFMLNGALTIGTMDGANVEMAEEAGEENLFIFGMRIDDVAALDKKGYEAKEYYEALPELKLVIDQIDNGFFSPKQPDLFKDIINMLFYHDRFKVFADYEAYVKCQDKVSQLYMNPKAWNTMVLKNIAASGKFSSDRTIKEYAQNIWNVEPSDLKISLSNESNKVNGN
The series is described as follows: Glycogen phosphorylase a activity assay (reverse direction, liberation of inorganic phosphate). The format is biochemical. The settings on record: 10 μM test substance; in vitro; incubated at room temperature for 40 minutes; absorption at 820 nm. The method, then:
Glycogen Phosphorylase a Activity Assay
The effect of compounds on the activity of the active form of glycogen phosphorylase (GPa) was measured in the reverse direction by following the synthesis of glycogen from glucose 1-phosphate by determining the liberation of inorganic phosphate. All the reactions were carried out as duplicate determinations in microtiter plates with 96 wells (Half Area Plates, Costar No 3696), measuring the change in absorption owing to the formation of the reaction product at the wavelength specified hereinafter in a Multiskan Ascent Elisa Reader (Lab Systems, Finland).
In order to measure the GPa enzymic activity in the reverse direction, the general method of Engers et al. (Engers H D, Shechosky S, Madsen N B, Can J Biochem 1970 July; 48(7):746-754) was used to measure the conversion of glucose 1-phosphate into glycogen and inorganic phosphate. […] The baseline glycogen phosphorylase a activity in the absence of test substance was determined by adding 10 μl of buffer solution T (0.1% DMSO). […] After incubation at 45° C. for 60 minutes, the absorption at 820 nm was measured. […]

On to `O=C(O)CCCCCOc1c(Cl)cc(NC(=O)NC(=O)c2ccccc2Cl)cc1Cl` [Example 1, 6-{2,6-Dichloro-4-[(2-chlorobenzoyl)ureido]phenoxy}hexanoic Acid], for which the melting point came out at 164 °C. For the same molecule, the inhibition at 10 µM in series [1] was 87%.
